Converted amounts (≈) assume the structure as drawn.

This passage reports MIC50, MIC90 and ED50 results from ChEMBL document CHEMBL1142742, “Synthesis and in vitro and in vivo structure-activity relationships of novel antifungal triazoles for dermatology” (2005).

Assay type in all cases: functional
For one experiment, the system named is Trichophyton tonsurans. Briefly: Minimum inhibitory concentration against Trichophyton tonsurans (n=18).
Experiment [1] is filed under the species Cavia porcellus. Briefly: Effective dose was measured in guinea pig infected with Microsporum canis on 14th day.
The species entered for experiment [2] is Cavia porcellus. Briefly: Effective dose was measured in guinea pig infected with Microsporum canis on 21st day.
The species named for another experiment is Mus musculus. Briefly: Effective dose was measured in mice infected with Trichophyton mentagrophytes.
Experiment [3] is filed under the species Cavia porcellus. Briefly: Effective dose was measured in guinea pig infected with Microsporum canis on 7th day.
The subject of a further experiment is Candida. Briefly: Minimum inhibitory concentration against Candida species (n=24).
A further experiment has as its system Aspergillus sp. Briefly: Minimum inhibitory concentration against Aspergillus species (n=8).
Experiment [4] is described as follows: Minimum inhibitory concentration against Microsporum species (n=38).
In the next experiment the test system is Trichophyton rubrum. Briefly: Minimum inhibitory concentration against Trichophyton rubrum (n=14).
Experiment [5] in a line: Minimum inhibitory concentration against Trichophyton species (n=80).
In another experiment the test system is Epidermophyton floccosum. Briefly: Minimum inhibitory concentration against Epidermophyton floccosum (n=12).
The test system of a further experiment is Trichophyton benhamiae. Briefly: Minimum inhibitory concentration against Trichophyton mentagrophytes (n=20).
[6] abbreviates: Trichophyton tonsurans, read-out: MIC50.
Setting [7] is: Trichophyton tonsurans, read-out: MIC90.
Setting [8] is: Cavia porcellus, read-out: ED50.
[9] abbreviates: Aspergillus sp., read-out: MIC50.
Where [10] appears, read: Aspergillus sp., read-out: MIC90.
Where [11] appears, read: Trichophyton rubrum, read-out: MIC50.
Where [12] appears, read: Trichophyton rubrum, read-out: MIC90.
The mark [13] stands for this setting: Epidermophyton floccosum, read-out: MIC50.
The mark [14] stands for this setting: Epidermophyton floccosum, read-out: MIC90.
The mark [15] stands for this setting: Trichophyton benhamiae, read-out: MIC50.
Where [16] appears, read: Trichophyton benhamiae, read-out: MIC90.

What is called MIC50 is the lowest concentration that inhibits either 50% of growth or 50% of the strains tested, depending on the study. The MIC90 is the lowest concentration that inhibits either 90% of growth or 90% of the strains tested, depending on the study. Usually ED50 stands for the dose at which the effect has come halfway, by size or by number of responders. Consider `CCCn1c(=O)n(CC)c(=O)n(-c2ccc(N3CCN(c4ccc(OC[C@H]5OC[C@](Cn6cncn6)(c6ccc(F)cc6F)O5)cc4)CC3)cc2)c1=O`, for which the MIC50 with Trichophyton tonsurans (setting [6]) is 10 µg/mL (≈ 13.7 µM); in the experiment on Candida (Candida, read-out: MIC50) it was 3.2 µg/mL (≈ 4.38 µM); in the experiment with Aspergillus sp. (setting [9]) it was more than 20 µg/mL; in experiment [4] (Microsporum, read-out: MIC50), 3.2 µg/mL (≈ 4.38 µM); in the experiment with Trichophyton rubrum (setting [11]), 3.2 µg/mL (≈ 4.38 µM); in experiment [5] (Trichophyton, read-out: MIC50), 3.2 µg/mL (≈ 4.38 µM). The MIC50 in the experiment on Epidermophyton floccosum (setting [13]) and in the experiment with Trichophyton benhamiae (setting [15]) was 1 µg/mL (≈ 1.37 µM) in each case. Further, the MIC90 with Trichophyton tonsurans (setting [7]) is more than 20 µg/mL; against Candida, more than 20 µg/mL; in the experiment with Aspergillus sp. (setting [10]), more than 20 µg/mL; in experiment [4] (Microsporum, read-out: MIC90) it was more than 20 µg/mL; in the experiment with Trichophyton rubrum (setting [12]), 10 µg/mL (≈ 13.7 µM); in experiment [5] (Trichophyton, read-out: MIC90), more than 20 µg/mL. The MIC90 in the experiment with Epidermophyton floccosum (setting [14]) and with Trichophyton benhamiae (setting [16]) was 3.2 µg/mL (≈ 4.38 µM) in each case. Further, the 50% effective dose (ED50) in the experiment listed under Cavia porcellus [1] (setting [8]) is 2.35 mg/kg; in the experiment filed under Cavia porcellus [2] (setting [8]), more than 2.5 mg/kg; in the experiment filed under Mus musculus (Mus musculus, read-out: ED50) it was more than 1.25 mg/kg; in the experiment listed under Cavia porcellus [3] (setting [8]) it was 1.25 mg/kg.

In the case of `CCCn1c(=O)n(CC)c(=O)n(-c2ccc(N3CCN(c4ccc(OC[C@H]5CO[C@](Cn6cncn6)(c6ccc(F)cc6F)O5)cc4)CC3)cc2)c1=O`, the ED50 in the experiment filed under Cavia porcellus [1] (setting [8]), in the experiment listed under Cavia porcellus [2] (setting [8]) and in the experiment filed under Cavia porcellus [3] (setting [8]) was more than 2.5 mg/kg each time. In addition, the MIC90 was 10 µg/mL (≈ 13.7 µM) against Candida; more than 20 µg/mL in the experiment with Aspergillus sp. (setting [10]); 13 µg/mL (≈ 17.8 µM) in [4] (Microsporum, read-out: MIC90); 3.2 µg/mL (≈ 4.38 µM) in the experiment on Trichophyton rubrum (setting [12]); more than 20 µg/mL in experiment [5] (Trichophyton, read-out: MIC90); 3.2 µg/mL (≈ 4.38 µM) in the experiment with Epidermophyton floccosum (setting [14]). In the experiment with Trichophyton benhamiae (setting [16]), the MIC90 amounted to 1 µg/mL (≈ 1.37 µM). Further, the MIC50 in the experiment with Candida (Candida, read-out: MIC50) is 1 µg/mL (≈ 1.37 µM); with Aspergillus sp. (setting [9]), 10 µg/mL (≈ 13.7 µM); in experiment [4] (Microsporum, read-out: MIC50), 1 µg/mL (≈ 1.37 µM); in the experiment on Trichophyton rubrum (setting [11]) it was 3.2 µg/mL (≈ 4.38 µM); in experiment [5] (Trichophyton, read-out: MIC50), more than 20 µg/mL; in the experiment on Epidermophyton floccosum (setting [13]), 1 µg/mL (≈ 1.37 µM). Moreover, the MIC50 in the experiment with Trichophyton benhamiae (setting [15]) was determined as 0.32 µg/mL (≈ 0.438 µM).

Consider `CC(C)N1CCN(c2ccc(N3CCN(c4ccc(OC[C@H]5OC[C@](Cn6cncn6)(c6ccc(F)cc6F)O5)cc4)CC3)cc2)C1=O` (stereo in doubt; 4c) [PRAMICONAZOLE], for which the MIC50 was 0.32 µg/mL (≈ 0.485 µM) in the experiment on Trichophyton tonsurans; 0.1 µg/mL (≈ 0.152 µM) with Candida; more than 20 µg/mL with Aspergillus sp.; 0.032 µg/mL (≈ 0.0485 µM) in experiment [4]; 0.32 µg/mL (≈ 0.485 µM) in the experiment with Trichophyton rubrum; 0.1 µg/mL (≈ 0.152 µM) in [5]. The MIC50 came out at 0.32 µg/mL (≈ 0.485 µM) against Epidermophyton floccosum and 0.01 µg/mL (≈ 0.0152 µM) with Trichophyton benhamiae. For the same compound, the MIC90 in the experiment on Trichophyton tonsurans is 0.1 µg/mL (≈ 0.152 µM); against Aspergillus sp. it was more than 20 µg/mL; in [4], 0.524 µg/mL (≈ 0.794 µM); in the experiment with Trichophyton rubrum, 0.796 µg/mL (≈ 1.21 µM); in experiment [5], 1.22 µg/mL (≈ 1.85 µM); with Epidermophyton floccosum, 0.093 µg/mL (≈ 0.141 µM). The compound further gave an MIC90 against Trichophyton benhamiae of 0.032 µg/mL (≈ 0.0485 µM). In addition, the ED50 is less than 0.31 mg/kg in the experiment filed under Cavia porcellus [1], less than 0.31 mg/kg in the experiment listed under Cavia porcellus [2], less than 0.63 mg/kg in the experiment listed under Mus musculus and less than 0.31 mg/kg in the experiment listed under Cavia porcellus [3].

Turning to `CCCn1c(=O)n(CC)c(=O)n(-c2ccc(N3CCN(c4ccc(OC[C@@H]5OC[C@@](Cn6cncn6)(c6ccc(F)cc6F)O5)cc4)CC3)cc2)c1=O`, the MIC50 with Trichophyton tonsurans (setting [6]) was more than 20 µg/mL; in the experiment on Candida (Candida, read-out: MIC50) it was 10 µg/mL (≈ 13.7 µM); with Aspergillus sp. (setting [9]), more than 20 µg/mL; in [4] (Microsporum, read-out: MIC50) it was more than 20 µg/mL; in the experiment with Trichophyton rubrum (setting [11]), more than 20 µg/mL; in [5] (Trichophyton, read-out: MIC50) it was more than 20 µg/mL. The MIC50 in the experiment on Epidermophyton floccosum (setting [13]) and in the experiment on Trichophyton benhamiae (setting [15]) was more than 20 µg/mL in each case. The MIC90 in the experiment with Trichophyton tonsurans (setting [7]) is more than 20 µg/mL; against Candida, more than 20 µg/mL; in the experiment with Aspergillus sp. (setting [10]), more than 20 µg/mL; in [4] (Microsporum, read-out: MIC90), more than 20 µg/mL; in the experiment with Trichophyton rubrum (setting [12]), more than 20 µg/mL; in [5] (Trichophyton, read-out: MIC90), more than 20 µg/mL. For the same compound, the MIC90 in the experiment with Epidermophyton floccosum (setting [14]) and in the experiment on Trichophyton benhamiae (setting [16]) was more than 20 µg/mL throughout. Moreover, the ED50 in the experiment filed under Cavia porcellus [1] (setting [8]), in the experiment filed under Cavia porcellus [2] (setting [8]) and in the experiment filed under Cavia porcellus [3] (setting [8]) was more than 2.5 mg/kg each time.

In the case of `CCN1C(=O)N(c2ccc(N3CCN(c4ccc(OC[C@@H]5OC[C@@](Cn6cncn6)(c6ccc(F)cc6F)O5)cc4)CC3)cc2)C(=O)C(C)(C)C1=O`, the MIC50 is more than 20 µg/mL in the experiment on Trichophyton tonsurans (setting [6]); 15 µg/mL (≈ 21 µM) in the experiment on Candida (Candida, read-out: MIC50); more than 20 µg/mL in the experiment on Aspergillus sp. (setting [9]); more than 20 µg/mL in experiment [4] (Microsporum, read-out: MIC50); more than 20 µg/mL with Trichophyton rubrum (setting [11]); more than 20 µg/mL in experiment [5] (Trichophyton, read-out: MIC50). For the same compound, the MIC50 with Epidermophyton floccosum (setting [13]) and in the experiment on Trichophyton benhamiae (setting [15]) was more than 20 µg/mL throughout. The MIC90 with Trichophyton tonsurans (setting [7]) is more than 20 µg/mL; with Candida it was more than 20 µg/mL; in the experiment with Aspergillus sp. (setting [10]), more than 20 µg/mL; in experiment [4] (Microsporum, read-out: MIC90) it was more than 20 µg/mL; with Trichophyton rubrum (setting [12]) it was more than 20 µg/mL; in experiment [5] (Trichophyton, read-out: MIC90), more than 20 µg/mL. For the same compound, the MIC90 in the experiment on Epidermophyton floccosum (setting [14]) and with Trichophyton benhamiae (setting [16]) was more than 20 µg/mL in each case. Besides, the ED50 in the experiment filed under Cavia porcellus [1] (setting [8]), in the experiment filed under Cavia porcellus [2] (setting [8]) and in the experiment listed under Cavia porcellus [3] (setting [8]) was more than 2.5 mg/kg throughout.
